Results taken from paper PMC9598407, “Identification of Staphylococcus aureus Penicillin Binding Protein 4 (PBP4) Inhibitors” (Antibiotics, 2022).
≈ marks a conversion by molar mass, not a printed value.

Columns and labels:
[1] = system: S. aureus COLnex; test: MIC testing, strain COLnex; format: cell-based; conditions: Staphylococcus aureus, read-out: Minimum inhibitory concentration
Protocol: (§1) To further evaluate their potential PBP4 inhibitor activity, prioritized compounds were tested for their ability to reverse PBP4 mediated antibiotic resistance in another S. aureus background using three isogenic strains that became available during our study (generous gift from Dr. S. Chatterjee; University of Maryland). These strains included: (1) COLnex, which is a methicillin susceptible strain, (2) CRB, a methicillin/ceftobiprole-resistant strain of COLnex that overproduces PBP4, and (3) CRB∆pbp4, a methicillin susceptible strain of CRB lacking the pbp4 gene.
(§2) S. aureus strain USA300 is a predominant cause of U.S. community-associated MRSA infections, whereas strain COL is a commonly studied hospital-associated MRSA strain. The S. aureus USA300 pbp4-null strain (USA300Δpbp4) and PBP4 complementation strain (USA300∆pbp4 pPBP4) have been previously described. Strain COLn is a laboratory derived tetracycline susceptible derivative of COL, whereas COLnex is a methicillin susceptible COLn derivative that has been cured of SCCmec thereby removing the mecA, which encodes PBP2a, and has been previously described. Strain CRB is a well-studied MRSA COLnex derivative that contains two amino acid substitutions (E183A and F241R) near the PBP4 active site and a 36-bp duplication 290-bp upstream of the pbp4 open reading frame leading to 20–40-fold overexpression of the gene. All strains were grown in Mueller Hinton (MH) broth at 37 °C, as indicated. Penicillin, streptomycin, ciprofloxacin, mupirocin, meropenem, and mitomycin C were purchased from Fisher Scientific (Waltham, MA, USA), whereas ceftobiprole was obtained from MedChemExpress LLC (Monmouth Junction, NJ, USA). The 30,000-member […]-EXP small molecule chemical library (Blocks 3–5) used in these studies was purchased from ChemBridge Corporation (San Diego, CA, USA).

[2] = system: S. aureus CRB∆pbp4; test: MIC testing, strain CRB∆pbp4; format: cell-based; conditions: Staphylococcus aureus, read-out: Minimum inhibitory concentration
Protocol: as §1, §2

[3] = system: S. aureus CRB; test: MIC testing, strain CRB (PBP4 overproducer); format: cell-based, Staphylococcus aureus; conditions: for MIC: Staphylococcus aureus, read-out: Minimum inhibitory concentration, strain CRB
Protocol: as §1, §2

[4] = system: S. aureus USA300∆pbp4; test: MIC testing, strain USA300∆pbp4; format: cell-based, Staphylococcus aureus; conditions: for MIC: Staphylococcus aureus, USA300, read-out: Minimum inhibitory concentration
Protocol: (§3) The approach used was to initially search for compounds that reverse the antibiotic resistance profile of wild type cells to that of a pbp4 mutant. To define screening conditions three strains were employed, a wild type USA300 MRSA strain, an isogenic pbp4 deletion strain, and a complemented strain harboring a plasmid wildtype pbp4 copy. The antibiotic susceptibility profile of each strain was measured to determine the magnitude with which PBP4 affects resistance to various antibiotics (Table 1). […]. We anticipated that the greater dynamic range of the latter could provide a means to reliably screen for agents that inhibit PBP4 function. […].
as §2

[5] = system: S. aureus USA300; test: Minimum inhibitory concentration (MIC) testing, strain USA300; format: cell-based, Staphylococcus aureus; conditions: for MIC: Staphylococcus aureus, USA300, read-out: Minimum inhibitory concentration; for Fold increase in resistance provided by PBP4: USA300 versus USA300∆pbp4 MIC; for Minimum inhibitory concentration: strain USA300
Protocol: as §3, §2

[6] = system: S. aureus USA300∆pbp4 pPBP4; test: microbe, parasite or virus in culture; format: cell-based; conditions: Staphylococcus aureus, USA300, read-out: Minimum inhibitory concentration
[7] = target: recombinant PBP4 (Bacillus subtilis, UniProt P40750); test: Gel electrophoresis BOCILLIN FL labeling of PBP4; format: binding; conditions: for Effect of preincubation on PBP4 BOCILLIN FL labeling (gel-based): 50-5000 µM, kanamycin 2000 µM or 5000 µM; for PBP4 BOCILLIN FL binding inhibition (gel-based) at low concentration: concentrations below 50 µM
Sequence of recombinant PBP4 (P40750 22-624): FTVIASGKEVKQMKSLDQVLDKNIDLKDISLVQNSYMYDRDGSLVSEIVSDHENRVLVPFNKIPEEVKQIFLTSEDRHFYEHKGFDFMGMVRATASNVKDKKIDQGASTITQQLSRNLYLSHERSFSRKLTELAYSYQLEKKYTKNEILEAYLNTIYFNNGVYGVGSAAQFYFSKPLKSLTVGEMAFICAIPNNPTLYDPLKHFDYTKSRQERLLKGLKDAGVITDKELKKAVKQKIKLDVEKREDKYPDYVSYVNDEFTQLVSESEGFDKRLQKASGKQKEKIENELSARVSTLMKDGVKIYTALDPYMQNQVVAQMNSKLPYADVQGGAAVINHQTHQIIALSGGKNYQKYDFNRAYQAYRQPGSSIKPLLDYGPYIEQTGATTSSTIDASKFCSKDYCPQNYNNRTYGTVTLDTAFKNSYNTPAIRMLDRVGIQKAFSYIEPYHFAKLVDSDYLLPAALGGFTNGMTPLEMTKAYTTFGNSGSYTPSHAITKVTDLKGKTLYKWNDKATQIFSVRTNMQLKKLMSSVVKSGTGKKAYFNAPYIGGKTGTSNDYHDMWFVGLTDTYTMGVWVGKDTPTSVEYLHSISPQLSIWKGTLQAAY
Protocol: A second, yet lower resolution, approach was used to verify the impact of 9314848 on PBP4 substrate binding in which the protein was preincubated with compound or control antibiotics then labeled with the BOCILLIN FL and resulting fluorescent labeled protein was visualized following gel electrophoresis.
(§4) The ability of putative PBP4 inhibitors to impact the active site of recombinant PBP4 was assessed using two previously established BOCILLIN-FL Penicillin (Penicillin V conjugated to BODIPY fluorescent dye) binding assays. First, fluorescence polarization assays were performed as previously described, but with minor modifications. Briefly, the indicated amount of the putative PBP4 inhibitor or control antibiotic was incubated with 1 µM recombinant B. subtilis PBP4 or S. aureus PBP2a in potassium phosphate buffer (40 mM K2HPO4 and 10 mM KH2PO4) for 1 h in black 96-well microtiter plates (Corning Life Sciences, Corning, NY, USA). Following incubation, 1 µM (final concentration) BOCILLIN FL penicillin was added, and the mixture was incubated for 30 min. BOCILLIN FL fluorescence polarization was measured at (495 nm excitation and 545 nm emission) in a SpectraMax M5 multimode plate reader (Molecular Devices, San Jose, CA, USA). All assays were repeated at least 8 times, averaged, and values falling outside of 2 standard deviations were considered outliers. The resulting data were plotted as percentage BOCILLIN FL binding inhibition = (T/U) × 100; T = FL polarization of ((PBP4+ BOCILLIN FL) − (PBP4+ BOCILLIN FL + inhibitor compound)), U = FL polarization of ((PBP4 + BOCILLIN FL) − (BOCILLIN FL)). Second, gel electrophoresis and fluorescence detection was used to measure BOCILLIN FL labeling of PBP4 treated with the known PBP4 inhibitor cefoxitin (positive control), kanamycin (negative control) or 9314848 (test compound), as previously described but with minor modifications. Briefly, 1 µM of recombinant PBP4 was mixed with 0, 50, 500, 2000, or 5000 µM 9314848 or control antibiotic in 50 mM phosphate buffer (pH 7.4) and incubated at 37 °C for 30 min. Next 40 μM of BOCILLIN FL was added to the reaction mixture and incubated for an additional 30 min at 37 °C. Reactions were stopped by adding 5× SDS-PAGE gel loading dye, heated at 100 °C for 3 min and separated by electrophoresis in 12% SDS-PAGE (2 h, 120 Volts). BOCILLIN FL labeled PBP4 was imaged at λ = 365 nm using a BioRad Gel Doc EZ Imaging system and the gel was then subsequently stained with Bio-safe Coomassie Brilliant Blue stain (BioRad, Hercules, CA, USA) to measure the amount of protein present in each reaction condition and analyzed using NIH-ImageJ software. The percent BOCILLIN FL binding was calculated by first normalizing the protein present in each reaction condition to that of untreated control and subsequently applying each reaction’s protein normalization factor to each reaction’s fluorescent signal. The percentage BOCILLIN FL binding inhibition was then calculated as the normalized band intensity of antibiotic/compound treated sample as compared to the control sample (PBP4 + BOCILLIN FL in the absence of compound).

[8] = target: recombinant Bacillus subtilis PBP4 (Bacillus subtilis, UniProt P40750); test: BOCILLIN FL fluorescence polarization displacement assay, PBP4; format: binding; conditions: for Effect of preincubation on BOCILLIN FL binding to PBP4 (fluorescence polarization): 50 µM, 1 µM PBP4
Sequence of recombinant Bacillus subtilis PBP4 (P40750 22-624): as above
Protocol: To more directly evaluate whether 9314848 is likely to affect PBP4 function, the compound’s ability to bind recombinant PBP4 was measured using BOCILLIN FL fluorescence polarization displacement assays. The premise for the assay is that the fluorescence polarization of the fluorescently labeled β-lactam, penicillin V (BOCILLIN FL), will increase upon binding to its cognate target (i.e., PBP4). Further, compounds that bind PBP4 and inhibit its function would impede BOCILLIN FL binding thereby allowing us to assess the protein binding affinity of 9314848 using a simple fluorescence reduction assay.
To determine whether the assay is amenable to measuring the binding properties of a compound that is known to bind PBP4 vs. a compound that is not expected to bind the protein we performed fluorescence polarization assays in which PBP4 was preincubated with either the β-lactam ampicillin, or the aminoglycoside kanamycin.
A dose response study was conducted (Figure 4B) in which PBP4 was preincubated with 0, 3.125, 6.25, 12.5, 25, or 50 µM of ampicillin, kanamycin, or 9314848.
as §4, with “First,” for “The ability of putative PBP4 inhibitors to impact the active site of recombinant PBP4 was assessed using two previously established BOCILLIN-FL Penicillin (Penicillin V conjugated to BODIPY fluorescent dye) binding assays. First,”, “All assays were repeated at least 8 times, averaged, and values falling outside of 2 standard deviations were considered outliers.” left out

## CCOc1ccc2ccccc2c1C(=O)N[C@@H]1C(=O)N2[C@@H]1SC(C)(C)[C@@H]2C(=O)O [NAF, nafcillin]
[1]
  MIC: 0.25 µg/mL (≈ 0.603 µM)
[2]
  MIC: 0.25 µg/mL (≈ 0.603 µM)
[3]
  MIC: > 128 µg/mL
[4]
  MIC: 4 µg/mL (≈ 9.65 µM)
[5]
  MIC: 8 µg/mL (≈ 19.3 µM)
  Fold increase in resistance provided by PBP4: 2 fold
  Minimum inhibitory concentration: 8 µg/mL (≈ 19.3 µM)
[6]
  MIC: 8 µg/mL (≈ 19.3 µM)

## CN(C)c1ccc(O)c2c1C[C@H]1C[C@H]3[C@H](N(C)C)C(O)=C(C(N)=O)C(=O)[C@@]3(O)C(O)=C1C2=O [MIN, minocycline]
[1]
  MIC: 0.5 µg/mL (≈ 1.09 µM)
[2]
  MIC: 0.5 µg/mL (≈ 1.09 µM)
[3]
  MIC: 0.5 µg/mL (≈ 1.09 µM)
[4]
  MIC: 0.5 µg/mL (≈ 1.09 µM)
[5]
  MIC: 0.5 µg/mL (≈ 1.09 µM)
[6]
  MIC: 0.5 µg/mL (≈ 1.09 µM)

## C/C(=C\C(=O)OCCCCCCCCC(=O)O)C[C@@H]1OC[C@H](C[C@@H]2O[C@H]2[C@@H](C)[C@H](C)O)[C@@H](O)[C@H]1O [MUP, mupirocin]
[1]
  MIC: 0.03 µg/mL (≈ 0.0599 µM)
[2]
  MIC: 0.03 µg/mL (≈ 0.0599 µM)
[3]
  MIC: 0.03 µg/mL (≈ 0.0599 µM)
[4]
  MIC: 0.125 µg/mL (≈ 0.25 µM)
[5]
  MIC: 0.125 µg/mL (≈ 0.25 µM)
[6]
  MIC: 0.125 µg/mL (≈ 0.25 µM)

## CO[C@@]1(NC(=O)Cc2cccs2)C(=O)N2C(C(=O)O)=C(COC(N)=O)CS[C@@H]21 [cefoxitin]
[7]
  Effect of preincubation on PBP4 BOCILLIN FL labeling (gel-based): reduced the protein’s ability to bind the fluorescent substrate
  PBP4 BOCILLIN FL binding inhibition (gel-based) at low concentration: did not reproducibly demonstrate BOCILLIN FL binding inhibition

## C[C@H]1COc2c(N3CCN(C)CC3)c(F)cc3c(=O)c(C(=O)O)cn1c23 [LEV, levofloxacin]
[1]
  MIC: 0.25 µg/mL (≈ 0.692 µM)
[2]
  MIC: 0.25 µg/mL (≈ 0.692 µM)
[3]
  MIC: 0.5 µg/mL (≈ 1.38 µM)
[4]
  MIC: 0.5 µg/mL (≈ 1.38 µM)
[5]
  MIC: 1 µg/mL (≈ 2.77 µM)
[6]
  MIC: 1 µg/mL (≈ 2.77 µM)

## NC[C@H]1O[C@H](O[C@H]2[C@H](O)[C@@H](O[C@H]3O[C@H](CO)[C@@H](O)[C@H](N)[C@H]3O)[C@H](N)C[C@@H]2N)[C@H](O)[C@@H](O)[C@@H]1O [kanamycin]
[8]; 0, 3.125, 6.25, 12.5, 25, or 50 µM
  PBP4 BOCILLIN FL binding inhibition, dose response: no inhibitory effect
[8]
  Effect of preincubation on BOCILLIN FL binding to PBP4 (fluorescence polarization): had no impact on BOCILLIN FL binding
[7]
  Effect of preincubation on PBP4 BOCILLIN FL labeling (gel-based): did not significantly impact

## colistin
[3]; strain CRB
  Minimum inhibitory concentration: 128 µg/mL
[5]
  Minimum inhibitory concentration: 128 µg/mL

## O=C(O)c1cn(C2CC2)c2cc(N3CCNCC3)c(F)cc2c1=O [CIP, ciprofloxacin]
[1]
  MIC: 0.25 µg/mL (≈ 0.754 µM)
[2]
  MIC: 0.25 µg/mL (≈ 0.754 µM)
[3]
  MIC: 0.5 µg/mL (≈ 1.51 µM)
[4]
  MIC: 1 µg/mL (≈ 3.02 µM)
[4]; strain USA300∆pbp4
  Minimum inhibitory concentration: 1 µg/mL (≈ 3.02 µM)
[5]
  MIC: 4 µg/mL (≈ 12.1 µM)
  Fold increase in resistance provided by PBP4: ~ 4 fold
  Minimum inhibitory concentration: 4 µg/mL (≈ 12.1 µM)

## CC1(C)S[C@@H]2[C@H](NC(=O)[C@H](N)c3ccccc3)C(=O)N2[C@H]1C(=O)O [ampicillin]
[8]
  Effect of preincubation on BOCILLIN FL binding to PBP4 (fluorescence polarization): limited BOCILLIN FL binding
[7]
  Effect of preincubation on PBP4 BOCILLIN FL labeling (gel-based): reduced the protein’s ability to bind the fluorescent substrate
  PBP4 BOCILLIN FL binding inhibition (gel-based) at low concentration: did not reproducibly demonstrate BOCILLIN FL binding inhibition

## C[C@@H](O)[C@H]1C(=O)N2C(C(=O)O)=C(S[C@@H]3CN[C@H](C(=O)N(C)C)C3)[C@H](C)[C@H]12 [MER, meropenem]
[1]
  MIC: 1 µg/mL (≈ 2.61 µM)
[2]
  MIC: 1 µg/mL (≈ 2.61 µM)
[3]
  MIC: 64 µg/mL (≈ 167 µM)
[4]
  MIC: 2 µg/mL (≈ 5.22 µM)
[5]
  MIC: 4 µg/mL (≈ 10.4 µM)
  Fold increase in resistance provided by PBP4: 2 fold
  Minimum inhibitory concentration: 4 µg/mL (≈ 10.4 µM)
[6]
  MIC: 4 µg/mL (≈ 10.4 µM)
